Measured values from patent publication US10150770B2, “Crystal form of bisulfate of JAK inhibitor and preparation method therefor” (Jiangsu Hengrui Medicine Co., Ltd., priority 2014, dated 2018).

Experiment: Stability test of solid forms spread flat in the air (lighting, heating, high humidity), purity detected by HPLC
Type: physicochemical
Conditions: for purity as detected by HPLC, 40° C.: heating 40° C.; for purity as detected by HPLC, 60° C.: heating 60° C.; for purity as detected by HPLC, RH 75%: high humidity RH 75%; for purity as detected by HPLC, RH 90%: high humidity RH 90%; for purity as detected by HPLC, Lighting: lighting 4500 Lux
Protocol: The amorphous sample prepared in Example 1 and crystal form I prepared in Example 3 were spread flat in the air to test their stability under the conditions of lighting (4500 Lux), heating (40° C., 60° C.), and high humidity (RH 75%, RH 90%).

COc1nsc(NC(=O)N2C[C@H]3C[C@H](N(C)c4ncnc5[nH]ccc45)C[C@H]3C2)n1.O=S(=O)(O)O [Amorphous Form, (3aR,5s,6aS)—N-(3-methoxyl-1,2,4-thiadiazole-5-yl)-5-(methyl(7H-pyrrolo[2,3-d]pyrimidine-4-yl)amino)hexahydrocyclopenta[c]pyrrole-2(1H)-formamide bisulfate]
purity as detected by HPLC, 40° C. (day 0): 98.33%
purity as detected by HPLC, 40° C. (day 5): 97.65%
purity as detected by HPLC, 40° C. (day 10): 96.61%
purity as detected by HPLC, 60° C. (day 0): 98.33%
purity as detected by HPLC, 60° C. (day 5): 94.53%
purity as detected by HPLC, 60° C. (day 10): 92.12%
effect of high humidity on stability: does not have much effect
purity as detected by HPLC, RH 75% (day 0): 98.33%
purity as detected by HPLC, RH 75% (day 5): 98.32%
purity as detected by HPLC, RH 75% (day 10): 98.16%
purity as detected by HPLC, RH 90% (day 0): 98.33%
purity as detected by HPLC, RH 90% (day 5): 99.14%
purity as detected by HPLC, RH 90% (day 10): 99.12%
purity as detected by HPLC, Lighting (day 0): 98.33%
purity as detected by HPLC, Lighting (day 5): 98.04%
purity as detected by HPLC, Lighting (day 10): 97.51%

COc1nsc(NC(=O)N2C[C@H]3C[C@H](N(C)c4ncnc5[nH]ccc45)C[C@H]3C2)n1.O=S(=O)(O)O [Crystal form I, (3aR,5s,6aS)—N-(3-methoxyl-1,2,4-thiadiazole-5-yl)-5-(methyl(7H-pyrrolo[2,3-d]pyrimidine-4-yl)amino)hexahydrocyclopenta[c]pyrrole-2(1H)-formamide bisulfate]
purity as detected by HPLC, 40° C. (day 0): 99.45%
purity as detected by HPLC, 40° C. (day 5): 99.42%
purity as detected by HPLC, 40° C. (day 10): 99.42%
purity as detected by HPLC, 60° C. (day 0): 99.45%
purity as detected by HPLC, 60° C. (day 5): 99.36%
purity as detected by HPLC, 60° C. (day 10): 99.35%
effect of high humidity on stability: does not have much effect
purity as detected by HPLC, RH 75% (day 0): 99.45%
purity as detected by HPLC, RH 75% (day 5): 99.42%
purity as detected by HPLC, RH 75% (day 10): 99.40%
purity as detected by HPLC, RH 90% (day 0): 99.45%
purity as detected by HPLC, RH 90% (day 5): 99.42%
purity as detected by HPLC, RH 90% (day 10): 99.39%
purity as detected by HPLC, Lighting (day 0): 99.45%
purity as detected by HPLC, Lighting (day 5): 99.40%
purity as detected by HPLC, Lighting (day 10): 99.39%
stability under the conditions of lighting and high temperature (lighting and high temperature, compared with the amorphous sample): significantly better than that of the amorphous sample
